According to patent US20220288069A1, “INHIBITORS OF TYROSINE KINASE” (BridGene Biosciences, Inc., priority 2019, published 2022):

Legend:
FLT3 = molecular target: T1, FLT3 (Homo sapiens, UniProt P36888); test: Caliper mobility shift kinase inhibition assay, FLT3; assay type: biochemical; settings: recombinant kinase; enzyme 0.1 nM, ATP 95 μM, incubation 3 hr
T1 construct: purchased ThermoFisher PV3182
T1 sequence (P36888 27-993): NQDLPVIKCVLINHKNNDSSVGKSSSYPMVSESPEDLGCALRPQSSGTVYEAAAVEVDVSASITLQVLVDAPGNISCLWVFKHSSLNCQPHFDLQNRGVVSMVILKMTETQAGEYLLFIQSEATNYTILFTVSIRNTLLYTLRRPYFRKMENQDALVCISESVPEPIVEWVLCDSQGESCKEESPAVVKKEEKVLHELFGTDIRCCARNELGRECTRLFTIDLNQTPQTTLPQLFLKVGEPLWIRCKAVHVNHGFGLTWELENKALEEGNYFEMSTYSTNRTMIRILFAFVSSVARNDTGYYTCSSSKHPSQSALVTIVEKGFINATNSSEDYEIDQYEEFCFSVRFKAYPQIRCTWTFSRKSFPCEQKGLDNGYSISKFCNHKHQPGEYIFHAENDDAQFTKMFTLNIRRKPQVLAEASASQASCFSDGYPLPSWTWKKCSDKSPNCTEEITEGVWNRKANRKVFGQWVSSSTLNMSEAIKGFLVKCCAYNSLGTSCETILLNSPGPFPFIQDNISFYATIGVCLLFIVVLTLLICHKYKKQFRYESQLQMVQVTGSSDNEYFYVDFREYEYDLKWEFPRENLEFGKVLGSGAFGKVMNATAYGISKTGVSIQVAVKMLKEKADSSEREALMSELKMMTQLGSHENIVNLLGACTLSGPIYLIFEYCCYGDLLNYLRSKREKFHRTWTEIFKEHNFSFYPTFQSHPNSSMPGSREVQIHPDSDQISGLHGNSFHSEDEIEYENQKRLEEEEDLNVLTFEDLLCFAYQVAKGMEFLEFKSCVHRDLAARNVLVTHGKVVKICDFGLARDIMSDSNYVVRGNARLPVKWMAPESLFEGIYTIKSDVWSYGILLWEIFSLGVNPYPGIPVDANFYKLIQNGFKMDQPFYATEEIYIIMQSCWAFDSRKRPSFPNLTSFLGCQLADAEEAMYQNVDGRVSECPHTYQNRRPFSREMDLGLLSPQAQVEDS
Description: (§1) Compounds' inhibition of recombinant kinases (FGR, FLT3, FMS, KIT, or RON) was measured using Caliper mobility shift assay, which is based on the difference in capillary electrophoresis mobility of a fluorescent-tagged peptide as a result of a phosphorylation by the kinase under study. Reactions were started by the addition of various concentrations of a compound (originally in DMSO solution) to a kinase solution in assay buffer followed by addition of a mixture of ATP and a fluorescent-tagged peptide substrate in assay buffer. Concentrations of the enzyme, ATP and the peptide were pre-optimized so that 15% substrate conversion to ensure initial velocity measurements. After incubation for 3 hours at room temperature, the kinase reaction was quenched by the addition of a concentrated EDTA solution before analysis on a LabChip EZ Reader II to yield percentage inhibition by comparing to the DMSO control.
(§2) Table 2 below summarizes the assay conditions for the characterization of the kinase inhibition properties of the disclosed compounds.

RON = molecular target: T2, RON (Homo sapiens, UniProt Q04912); test: Caliper mobility shift kinase inhibition assay, RON; assay type: biochemical; settings: recombinant kinase; enzyme 0.4 nM, ATP 20 μM, incubation 3 hr
T2 construct: purchased Invitrogen PV4314
T2 sequence (Q04912 25-1400): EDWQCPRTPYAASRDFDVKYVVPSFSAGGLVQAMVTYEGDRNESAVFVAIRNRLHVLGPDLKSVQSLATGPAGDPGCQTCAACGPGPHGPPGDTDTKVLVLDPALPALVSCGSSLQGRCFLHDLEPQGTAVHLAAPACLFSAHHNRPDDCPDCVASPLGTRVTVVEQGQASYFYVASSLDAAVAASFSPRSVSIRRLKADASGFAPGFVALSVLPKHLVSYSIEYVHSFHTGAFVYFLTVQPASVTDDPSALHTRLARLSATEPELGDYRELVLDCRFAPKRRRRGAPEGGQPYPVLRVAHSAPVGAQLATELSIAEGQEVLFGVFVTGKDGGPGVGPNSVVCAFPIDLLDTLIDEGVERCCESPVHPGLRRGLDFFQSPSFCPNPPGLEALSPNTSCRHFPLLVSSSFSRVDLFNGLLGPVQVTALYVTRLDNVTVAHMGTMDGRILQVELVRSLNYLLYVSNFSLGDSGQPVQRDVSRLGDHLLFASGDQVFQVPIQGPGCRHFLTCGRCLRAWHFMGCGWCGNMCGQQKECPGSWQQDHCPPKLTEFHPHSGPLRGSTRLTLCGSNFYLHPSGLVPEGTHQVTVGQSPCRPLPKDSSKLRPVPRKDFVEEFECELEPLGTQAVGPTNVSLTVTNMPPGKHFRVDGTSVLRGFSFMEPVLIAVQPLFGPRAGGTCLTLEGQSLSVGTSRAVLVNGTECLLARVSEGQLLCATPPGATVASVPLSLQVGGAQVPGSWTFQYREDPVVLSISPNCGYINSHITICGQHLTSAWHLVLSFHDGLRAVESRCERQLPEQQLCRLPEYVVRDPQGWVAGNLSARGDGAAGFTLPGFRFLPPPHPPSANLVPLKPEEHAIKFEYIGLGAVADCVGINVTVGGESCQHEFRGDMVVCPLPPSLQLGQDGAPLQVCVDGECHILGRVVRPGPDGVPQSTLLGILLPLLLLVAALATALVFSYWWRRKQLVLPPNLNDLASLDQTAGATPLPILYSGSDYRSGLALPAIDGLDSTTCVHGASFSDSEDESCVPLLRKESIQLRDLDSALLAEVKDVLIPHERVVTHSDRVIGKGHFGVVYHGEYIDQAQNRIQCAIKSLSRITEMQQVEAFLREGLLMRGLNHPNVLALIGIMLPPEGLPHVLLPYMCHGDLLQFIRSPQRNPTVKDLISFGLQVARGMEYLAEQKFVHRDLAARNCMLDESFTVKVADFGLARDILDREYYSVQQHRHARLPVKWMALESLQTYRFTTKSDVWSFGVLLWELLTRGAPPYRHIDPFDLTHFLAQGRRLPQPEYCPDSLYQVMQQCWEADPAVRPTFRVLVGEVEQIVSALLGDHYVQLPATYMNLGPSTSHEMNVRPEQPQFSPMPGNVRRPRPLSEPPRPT
Description: as §1, §2

Kasumi−1 = test: Cell viability assay (CellTiter-Glo), Kasumi-1; assay type: cell-based; settings: Homo sapiens, Kasumi-1 cells, 72 hr
Description: (§3) Cell viability assay was performed based on the following brief procedures. Cells were plated at the density of 5K/well with volume of […] in 96-well white plate and clear bottom plates. 20 μL of veh. or compound was added at proper concentration to the well. The final volume is 200 μL, with final conc. of DMSO32 0.1%, 11 points, triplicates. The cells were then treated at 37° C. in the TC incubator for 72 hr. Equal volume (200 μL) of CellTiter-Glo reagent (Promega) was added to the well and protect from light at room temperature for 15 min. The chemiluminicent was measured with EnSight (Perkin Elmer). GraphPad Prism non-linear regression, Log[inhibitor] response with four parameters were used to calculate GI50.

MV4−11 = test: Cell viability assay (CellTiter-Glo), MV4-11; assay type: cell-based; settings: Homo sapiens, MV4-11 cells, 72 hr
Description: as §3

FGR = molecular target: T3, FGR (Homo sapiens, UniProt P09769); test: Caliper mobility shift kinase inhibition assay, FGR; assay type: biochemical; settings: recombinant kinase; enzyme 0.3 nM, ATP 50 μM, incubation 3 hr
T3 construct: purchased BPS 4022
T3 sequence (P09769 whole entry): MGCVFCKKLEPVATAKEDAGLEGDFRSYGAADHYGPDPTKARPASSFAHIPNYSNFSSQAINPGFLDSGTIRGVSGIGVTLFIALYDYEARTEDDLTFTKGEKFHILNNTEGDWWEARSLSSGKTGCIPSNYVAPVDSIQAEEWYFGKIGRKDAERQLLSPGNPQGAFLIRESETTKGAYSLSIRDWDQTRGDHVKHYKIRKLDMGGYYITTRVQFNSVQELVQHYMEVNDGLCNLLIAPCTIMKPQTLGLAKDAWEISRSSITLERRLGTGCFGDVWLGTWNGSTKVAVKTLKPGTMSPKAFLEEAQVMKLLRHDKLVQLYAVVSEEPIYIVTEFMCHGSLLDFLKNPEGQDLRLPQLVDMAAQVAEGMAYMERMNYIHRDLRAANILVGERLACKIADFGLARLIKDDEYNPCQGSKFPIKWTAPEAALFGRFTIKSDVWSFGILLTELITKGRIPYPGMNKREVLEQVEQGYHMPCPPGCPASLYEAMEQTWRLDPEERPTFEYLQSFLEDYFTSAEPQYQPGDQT
Description: as §1, §2

KIT = molecular target: T4, KIT (Homo sapiens, UniProt P10721); test: Caliper mobility shift kinase inhibition assay, KIT; assay type: biochemical; settings: recombinant kinase; enzyme 0.9 nM, ATP 400 μM, incubation 17 hr
T4 construct: purchased BPS 40250
T4 sequence (P10721 26-976): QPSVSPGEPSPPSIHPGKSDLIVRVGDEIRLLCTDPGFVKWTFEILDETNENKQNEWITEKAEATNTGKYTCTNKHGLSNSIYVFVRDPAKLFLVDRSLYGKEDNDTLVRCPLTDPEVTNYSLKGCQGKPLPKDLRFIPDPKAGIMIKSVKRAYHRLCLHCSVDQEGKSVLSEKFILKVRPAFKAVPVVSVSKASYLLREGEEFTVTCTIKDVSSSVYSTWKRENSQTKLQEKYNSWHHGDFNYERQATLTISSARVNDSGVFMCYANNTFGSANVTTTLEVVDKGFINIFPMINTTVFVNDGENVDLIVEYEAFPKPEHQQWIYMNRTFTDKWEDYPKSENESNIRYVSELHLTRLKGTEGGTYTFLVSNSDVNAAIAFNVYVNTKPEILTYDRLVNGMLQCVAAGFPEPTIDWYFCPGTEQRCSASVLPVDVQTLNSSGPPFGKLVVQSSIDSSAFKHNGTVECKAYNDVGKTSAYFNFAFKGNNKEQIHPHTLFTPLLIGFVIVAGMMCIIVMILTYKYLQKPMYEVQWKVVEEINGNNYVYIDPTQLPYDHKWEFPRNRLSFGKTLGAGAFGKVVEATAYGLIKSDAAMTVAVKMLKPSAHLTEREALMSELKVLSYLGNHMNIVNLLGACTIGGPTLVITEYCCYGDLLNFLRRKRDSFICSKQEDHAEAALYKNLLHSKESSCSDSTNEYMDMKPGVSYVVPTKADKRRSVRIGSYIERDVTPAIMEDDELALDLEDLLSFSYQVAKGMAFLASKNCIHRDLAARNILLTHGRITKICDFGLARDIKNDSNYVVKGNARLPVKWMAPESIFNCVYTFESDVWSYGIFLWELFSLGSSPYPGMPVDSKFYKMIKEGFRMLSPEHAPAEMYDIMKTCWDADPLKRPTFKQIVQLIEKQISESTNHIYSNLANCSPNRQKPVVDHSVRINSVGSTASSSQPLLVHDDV
Description: as §1, with “After incubation for 3 hours at room temperature, the kinase reaction was quenched by the addition of a concentrated EDTA solution before analysis on a LabChip EZ Reader II to yield percentage inhibition by comparing to the DMSO control.” left out
as §2

FMS = molecular target: T5, FMS (Homo sapiens, UniProt P07333); test: Caliper mobility shift kinase inhibition assay, FMS; assay type: biochemical; settings: recombinant kinase; enzyme 0.25 nM, ATP 100 μM, incubation 3 hr
T5 construct: purchased Invitrogen PV3249
T5 sequence (P07333 20-972): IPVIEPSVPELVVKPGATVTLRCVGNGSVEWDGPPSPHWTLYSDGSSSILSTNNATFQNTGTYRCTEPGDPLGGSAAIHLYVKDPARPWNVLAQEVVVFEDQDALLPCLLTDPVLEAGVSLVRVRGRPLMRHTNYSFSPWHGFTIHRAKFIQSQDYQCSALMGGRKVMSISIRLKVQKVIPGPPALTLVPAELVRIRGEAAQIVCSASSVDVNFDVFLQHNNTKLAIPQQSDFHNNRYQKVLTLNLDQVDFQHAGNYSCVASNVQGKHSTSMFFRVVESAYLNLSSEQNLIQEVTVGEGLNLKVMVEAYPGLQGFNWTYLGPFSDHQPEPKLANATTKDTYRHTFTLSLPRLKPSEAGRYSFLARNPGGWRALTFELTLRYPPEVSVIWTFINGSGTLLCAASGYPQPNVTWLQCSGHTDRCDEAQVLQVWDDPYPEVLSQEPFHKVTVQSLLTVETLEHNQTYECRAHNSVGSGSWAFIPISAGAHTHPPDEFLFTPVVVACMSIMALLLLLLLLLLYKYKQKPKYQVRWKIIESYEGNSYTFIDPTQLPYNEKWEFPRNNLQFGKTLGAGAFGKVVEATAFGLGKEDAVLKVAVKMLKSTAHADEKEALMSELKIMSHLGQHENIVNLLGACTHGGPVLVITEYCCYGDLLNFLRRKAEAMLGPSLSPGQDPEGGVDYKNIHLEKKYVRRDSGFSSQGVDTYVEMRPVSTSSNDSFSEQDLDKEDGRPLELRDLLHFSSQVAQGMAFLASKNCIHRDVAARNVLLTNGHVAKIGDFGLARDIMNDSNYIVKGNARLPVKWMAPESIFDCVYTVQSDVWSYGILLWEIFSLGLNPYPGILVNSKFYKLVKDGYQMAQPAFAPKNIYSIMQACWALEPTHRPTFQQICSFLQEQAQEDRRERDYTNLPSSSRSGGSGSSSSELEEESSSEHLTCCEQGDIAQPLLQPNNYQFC
Description: as §1, §2

THP−1 = test: Cell viability assay (CellTiter-Glo), THP-1; assay type: cell-based; settings: Homo sapiens, THP-1 cells, 72 hr
Description: as §3

SMILES	IC50 (FLT3) [nM]	IC50 (RON) [nM]	GI50 (Kasumi−1) [nM]	GI50 (MV4−11) [nM]	IC50 (FGR) [nM]	IC50 (KIT) [nM]	IC50 (FMS) [nM]	GI50 (THP−1) [nM]
Cc1cc(Nc2cc(NCCNC(=O)[C@H](C)N(C)C(=O)/C=C/CN(C)C)nc(Nc3ccc(CC#N)cc3)n2)n[nH]1 [Compound 1]	< 10	100 to 1000	100 to 1000	< 10	10 to 100	< 10	< 10	≥ 1000
Cc1cc(Nc2cc(NCCNC(=O)[C@@H]3CCCN3C(=O)/C=C/CN(C)C)nc(Nc3ccc(CC#N)cc3)n2)n[nH]1 [Compound 3]	< 10	–	≥ 1000	10 to 100	–	< 10	–	≥ 1000
C=CC(=O)N(C)[C@@H](C)C(=O)NCCNc1cc(Nc2cc(C3CCC3)[nH]n2)nc(Nc2ccc(CC#N)cc2)n1 [Compound 4, (2S)—N-[2-[[2-[4-(cyanomethyl)anilino]-6-[(5-cyclobutyl-1H-pyrazol-3-yl)amino]pyrimidin-4-yl]amino]ethyl]-2-[methyl(prop-2-enoyl)amino]propanamide]	< 10	–	100 to 1000	< 10	–	10 to 100	–	100 to 1000
CC#CC(=O)N(C)[C@@H](C)C(=O)NCCNc1cc(Nc2cc(C3CCC3)[nH]n2)nc(Nc2ccc(CC#N)cc2)n1 [Compound 5, N-[(1S)-2-[2-[[2-[4-(cyanomethyl)anilino]-6-[(5-cyclobutyl-1H-pyrazol-3-yl)amino]pyrimidin-4-yl]amino]ethylamino]-1-methyl-2-oxo-ethyl]-N-methyl-but-2-ynamide]	< 10	–	≥ 1000	< 10	–	10 to 100	–	≥ 1000
C=CC(=O)N(C)[C@@H](C)C(=O)NCCNc1cc(Nc2ncc(-c3ccccc3)s2)nc(C)n1 [Compound 9, (2S)—N-[2-[[2-methyl-6-[(5-phenylthiazol-2-yl)amino]pyrimidin-4-yl]amino]ethyl]-2-[methyl(prop-2-enoyl)amino]propanamide]	< 10	–	< 10	< 10	–	< 10	–	≥ 1000
CCC(=O)N(C)[C@@H](C)C(=O)NCCNc1cc(Nc2ncc(-c3ccccc3)s2)nc(C)n1 [Compound 10, (2S)—N-[2-[[2-methyl-6-[(5-phenylthiazol-2-yl)amino]pyrimidin-4-yl]amino]ethyl]-2-[methyl(propanoyl)amino]propanamide]	10 to 100	–	10 to 100	< 10	–	10 to 100	–	≥ 1000
C=CC(=O)N(C)[C@@H](C)C(=O)NCCOc1cc(C)nc(Nc2ncc(-c3ccccc3)s2)c1 [Compound 12, (2S)—N-[2-[[2-methyl-6-[(5-phenylthiazol-2-yl)amino]-4-pyridyl]oxy]ethyl]-2-[methyl(prop-2-enoyl)amino]propanamide]	< 10	–	< 10	< 10	–	< 10	–	≥ 1000
C=CC(=O)N(C)[C@@H](C)C(=O)NCCOc1cc(Nc2ncc(-c3ccccc3)s2)nc(C)n1 [Compound 13, (2S)—N-[2-[2-methyl-6-[(5-phenylthiazol-2-yl)amino]pyrimidin-4-yl]oxyethyl]-2-[methyl(prop-2-enoyl)amino]propanamide]	< 10	–	< 10	< 10	–	< 10	–	≥ 1000
C=CC(=O)N(C)[C@@H](C)C(=O)NCCNc1cc(Nc2ncc(-c3ccncc3)s2)nc(C)n1 [Compound 17, (2S)-2-[methyl(prop-2-enoyl)amino]-N-[2-[[2-methyl-6-[[5-(4-pyridyl)thiazol-2-yl]amino]pyrimidin-4-yl]amino]ethyl]propanamide]	< 10	–	< 10	< 10	–	< 10	–	≥ 1000
CC#CC(=O)N(C)[C@@H](C)C(=O)NCCNc1cc(Nc2ncc(-c3ccncc3)s2)nc(C)n1 [Compound 18, N-methyl-N-[(1S)-1-methyl-2-[2-[[2-methyl-6-[[5-(4-pyridyl)thiazol-2-yl]amino]pyrimidin-4-yl]amino]ethylamino]-2-oxo-ethyl]but-2-ynamide]	< 10	–	< 10	< 10	–	< 10	–	≥ 1000
Cc1c(C(=O)NCCNC(=O)[C@H](C)N(C)C(=O)/C=C/CN(C)C)c[nH]c1/C=C1\C(=O)Nc2ccc(F)cc21 [Compound 26, N-(2-((S)-2-((E)-4-(dimethylamino)-N-methylbut-2-enamido)propanamido)ethyl)-5-((Z)-(5-fluoro-2-oxoindolin-3-ylidene)methyl)-4-methyl-1H-pyrrole-3-carboxamide]	< 10	100 to 1000	–	< 10	100 to 1000	< 10	< 10	≥ 1000
